# Reference: US20180008563A1 (priority 2015, published 2018)
# Like-named read-outs stand apart in the source and are kept apart here.
# Key:
# PEDV = settings: Kim et al., Virus Research (2013); cited from earlier work
# epidemic diarrhea = settings: diseased piglets, oral, a certain dose; cited from earlier work
# [1] = system: porcine epidemic diarrhea; experiment: Treatment of porcine epidemic diarrhea of newborn suckling piglets (piglets and lactating sows treated); type: in vivo, pigs; settings: diseased newborn suckling piglets; taurine 100 g per sow per day, 0.2 g per piglet per day
# Method: Treatment of the porcine epidemic diarrhea on newborn piglets with taurine was implemented by orally administering a taurine solution to diseased suckling piglets and administering taurine to lactating sows, that is, simultaneous treatment of both the suckling piglets and the lactating sows.
# the administration by drenching/mixed-feeding was carried out on the day when the disease occurred in the suckling piglets, and a non-interrupted administration lasted for 3-10 days. Lactating sows: non-interrupted oral administration lasted for 5-10 days.
# the administration by drenching or mixed-feeding was carried out on the day when the disease occurred in the suckling piglets. The administration by drenching: 2% taurine solution at a dosage of 1-5 mL per time and it was taken 2-6 times per day. The administration by mixed-feeding: 1-20 g/L of taurine solution was drunk freely. Lactating sows: each sow was administered with 5-500 g of taurine per day and the administration was in a single dose or in divided doses.
# 40 litters of diseased newborn suckling piglets and sows thereof were selected and randomly divided into two groups equivalently. Control group: conventional supportive therapy (fluid infusion+antibiotic therapy+atropine sulfate); experimental group: treatment with taurine.
# II. […]
# [2] = system: porcine epidemic diarrhea; experiment: Prevention of porcine epidemic diarrhea of weaned piglets, care pigs and finishing pigs; type: in vivo; settings: taurine 200 mg per kilogram of body weight per day
# Method: Prevention of the porcine epidemic diarrhea on the weaned piglets, the care pigs and the finishing pigs with taurine was implemented by orally administering taurine to a swine herd, wherein the administration may be carried out by means of feeding in water or mixed feeding.
# a preventative administration was carried out during an epidemic period of the disease, or in autumn, winter and spring when the temperature was low and changed greatly, that is, in the season when the porcine epidemic diarrhea frequently occurs. Generally, the administration can be carried out for a long-term. In consideration of the use-cost, the drug administration time is preferably 3-30 days, and more preferably, 7-14 days. The effect is subject to an obvious time-effect relationship.
# 0.005-2% by weight of taurine was added in daily-drinking water for the pigs to drink freely; or taurine accounting for 0.01-5% by weight of the feed was added thereto, which is equivalent to a dosage of 50-10000 mg per kilogram of body weight per day of taurine, and the administration was in a single dose or in divided doses. The effect is subject to an obvious quantity-effect relationship.
# 120 healthy weaned piglets, 120 healthy care pigs and 120 healthy finishing pigs were selected and randomly divided into two groups equivalently. Control group: conventional feeding; experimental group: conventional feeding+taurine (the dosage of taurine was 200 mg per kilogram of body weight per day).
# I. The pharmaceutical composition according to Embodiment 6 was used for the prevention of porcine epidemic diarrhea of the newborn piglets, weaned piglets, care pigs and finishing pigs. Particularly, a mode of the administration for the newborn piglets was the same as the method in Embodiment 1, i.e. each pregnant sow was administered with 50 g of the pharmaceutical composition in Embodiment 6 per day, and the administration was in a single dose or in divided doses. […]
# [3] = system: porcine transmissible gastroenteritis; type: in vivo, pigs
# rotavirus diarrhea = experiment: Treatment of rotavirus diarrhea; type: in vivo, pigs
# [4] = system: pseudorabies viral diarrhea; type: in vivo, pigs
# [5] = system: porcine epidemic diarrhea; experiment: Treatment of porcine epidemic diarrhea of weaned piglets, care pigs and finishing pigs; type: in vivo; settings: taurine 300 mg per kilogram of body weight per day
# Method: Treatment of the porcine epidemic diarrhea on the weaned piglets, the care pigs and the finishing pigs with taurine was implemented by orally administering taurine to the pigs, wherein the administration may be carried out by means of feeding in water or mixed feeding.
# the administration was carried out from the day of occurrence of the disease, and in consideration of the use-cost, the drug administration time is preferably 3-30 days, and more preferably 7-14 days. The effect is subject to an obvious time-effect relationship.
# 0.1-2% by weight of taurine was added in the daily-drinking water for the pigs to drink freely; or taurine accounting for 0.2-5% of the feed was added thereto, which is equivalent to a dosage of 100-10000 mg per kilogram of body weight per day of taurine, and the administration was in a single dose or in divided doses. The effect is subject to an obvious quantity-effect relationship.
# 60 diseased weaned piglets, 60 diseased care pigs and 60 diseased finishing pigs were selected, and were randomly divided into two groups equivalently. Control group: conventional supportive therapy (fluid infusion+antibiotic therapy+atropine sulfate); experimental group: treatment with taurine (the dosage of taurine was 300 mg per kilogram of body weight per day).
# II. The pharmaceutical composition according to Embodiment 6 was used for the treatment of porcine epidemic diarrhea of the newborn piglets, weaned piglets, care pigs and finishing pigs. A mode of the administration for the newborn piglets was the same as the method in Embodiment 2, i.e. the administration by drenching and/or mixed-feeding was carried out on the day when the disease occurred in the suckling piglets. The administration by drenching: a solution with a mass concentration of 5% was prepared from the pharmaceutical composition in Embodiment 6 with a dosage of 2-4 mL per time and it was taken 2-6 times per day. The administration by mixed-feeding: 4 g/L of the solution was drunk freely. […]
# [6] = care pigs, taurine dosage as in Embodiment 4 (300 mg per kilogram of body weight per day)
# [7] = newborn piglets, taurine dosage as in Embodiment 2 (100 g per sow per day, 0.2 g per piglet per day)
# [8] = weaned piglets, taurine dosage as in Embodiment 4 (300 mg per kilogram of body weight per day)
compound,measurement,setting,value
NC(=O)c1ncn([C@@H]2O[C@H](CO)[C@@H](O)[C@H]2O)n1 [Ribavirin],inhibition of replication of PEDV,PEDV,capable of inhibiting replication of PEDV
povidone iodine,improvement of survival rate,epidemic diarrhea,5-10%
same,prognosis of survived suckling piglets,epidemic diarrhea,unfavourable prognosis
"NCCS(=O)(=O)O [taurine, β-aminoethanesulfonic acid]",Prognosis,[1],Good
same,Prognosis,[2]; care pigs,Excellent
same,Prognosis,[2]; finishing pigs,Excellent
same,Prognosis,[2]; weaned piglets,Excellent
same,Prognosis,[3]; [6],Good
same,Prognosis,"[3]; finishing pigs, taurine dosage as in Embodiment 4 (300 mg per kilogram of body weight per day)",Good
same,Prognosis,[3]; [7],Good
same,Prognosis,[3]; [8],Good
same,Prognosis,rotavirus diarrhea; [6],Good
same,Prognosis,rotavirus diarrhea; [7],Good
same,Prognosis,rotavirus diarrhea; [8],Good
same,Prognosis,[4]; [6],General
same,treatment effect on the pseudorabies viral diarrhea,[4]; summary in text of Table 5,no treatment effect
same,Prognosis,[5]; diseased care pigs,Good
same,Prognosis,[5]; diseased finishing pigs,Good
same,Prognosis,[5]; diseased weaned piglets,Good
